Results: PMC8213057, “Targeting ALK2: An Open Science Approach to Developing Therapeutics for the Treatment of Diffuse Intrinsic Pontine Glioma” (Journal of Medicinal Chemistry, 2020)

Experiments:
[1] = tested on: hERG
[2] = molecular target: CYP2C8
[3] = mouse liver microsomal stability assay; format: in vitro ADME; details: male, CD-1, mouse, microsomes, pH 7.4, mouse liver microsomes, 60 min, 37 °C, read-out: MLM % Remaining at 1h
[4] = molecular target: T1, CDK9/cyclin K (Homo sapiens, UniProt P50750); assay: 375-member kinase panel; format: biochemical; details: Run 1, Run 2; for % enzyme activity: 1 μM; for remaining activity at 1 µM: read-out: % enzyme activity, 1 μM
T1 construct: purchased Reaction Biology Corporation
T1 sequence (P50750 whole entry): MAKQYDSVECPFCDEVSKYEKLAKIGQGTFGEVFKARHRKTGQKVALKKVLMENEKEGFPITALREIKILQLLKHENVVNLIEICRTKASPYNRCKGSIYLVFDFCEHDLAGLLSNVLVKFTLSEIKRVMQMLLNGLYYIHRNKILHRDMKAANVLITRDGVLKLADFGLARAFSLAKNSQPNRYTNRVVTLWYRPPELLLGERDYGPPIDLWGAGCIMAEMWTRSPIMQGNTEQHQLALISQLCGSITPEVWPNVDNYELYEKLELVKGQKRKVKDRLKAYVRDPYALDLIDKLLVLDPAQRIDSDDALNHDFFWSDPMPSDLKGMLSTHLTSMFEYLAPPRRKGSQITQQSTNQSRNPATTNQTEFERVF
T1 sequence (O75909 whole entry partner): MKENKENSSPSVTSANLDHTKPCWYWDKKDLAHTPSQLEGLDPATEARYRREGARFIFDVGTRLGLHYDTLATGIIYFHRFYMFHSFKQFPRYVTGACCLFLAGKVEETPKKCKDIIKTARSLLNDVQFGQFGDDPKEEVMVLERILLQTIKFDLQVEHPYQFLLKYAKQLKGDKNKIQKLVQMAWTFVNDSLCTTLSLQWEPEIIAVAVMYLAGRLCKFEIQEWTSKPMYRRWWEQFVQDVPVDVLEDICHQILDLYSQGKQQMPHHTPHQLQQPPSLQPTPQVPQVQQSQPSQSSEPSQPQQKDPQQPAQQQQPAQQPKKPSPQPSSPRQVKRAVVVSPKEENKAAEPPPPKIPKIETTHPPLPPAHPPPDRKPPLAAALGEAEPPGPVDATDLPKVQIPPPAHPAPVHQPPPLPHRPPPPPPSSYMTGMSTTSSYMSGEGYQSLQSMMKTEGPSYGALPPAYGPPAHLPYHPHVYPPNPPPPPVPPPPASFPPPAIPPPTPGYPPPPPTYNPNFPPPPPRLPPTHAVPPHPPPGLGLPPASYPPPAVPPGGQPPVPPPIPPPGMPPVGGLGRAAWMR

[5] = molecular target: T2, ARAF (Homo sapiens, UniProt P10398); details: 1 μM; Run 1, Run 2
T2 sequence (P10398 1-606): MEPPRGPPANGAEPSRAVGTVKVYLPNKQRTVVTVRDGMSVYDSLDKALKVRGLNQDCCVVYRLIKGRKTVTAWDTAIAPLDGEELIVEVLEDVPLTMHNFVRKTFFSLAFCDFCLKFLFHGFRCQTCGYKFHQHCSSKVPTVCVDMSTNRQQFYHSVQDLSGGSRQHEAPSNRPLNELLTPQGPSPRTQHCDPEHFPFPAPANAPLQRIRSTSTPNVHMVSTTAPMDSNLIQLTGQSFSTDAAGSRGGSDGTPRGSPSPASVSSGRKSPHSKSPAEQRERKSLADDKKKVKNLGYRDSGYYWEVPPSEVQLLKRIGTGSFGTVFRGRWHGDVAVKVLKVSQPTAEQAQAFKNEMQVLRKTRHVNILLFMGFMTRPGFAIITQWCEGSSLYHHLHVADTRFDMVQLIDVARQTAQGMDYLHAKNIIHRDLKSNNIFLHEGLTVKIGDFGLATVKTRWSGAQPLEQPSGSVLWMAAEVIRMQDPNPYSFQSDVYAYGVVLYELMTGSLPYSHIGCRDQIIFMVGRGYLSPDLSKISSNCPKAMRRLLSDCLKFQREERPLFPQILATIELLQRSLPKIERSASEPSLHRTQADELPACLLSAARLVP

[6] = molecular target: CLK3 (Homo sapiens, UniProt P49761); details: 1 μM; Run 1, Run 2
[7] = molecular target: GRK4 (Homo sapiens, UniProt P32298); details: 1 μM; Run 1, Run 2
Chain of GRK4 (P32298 whole entry): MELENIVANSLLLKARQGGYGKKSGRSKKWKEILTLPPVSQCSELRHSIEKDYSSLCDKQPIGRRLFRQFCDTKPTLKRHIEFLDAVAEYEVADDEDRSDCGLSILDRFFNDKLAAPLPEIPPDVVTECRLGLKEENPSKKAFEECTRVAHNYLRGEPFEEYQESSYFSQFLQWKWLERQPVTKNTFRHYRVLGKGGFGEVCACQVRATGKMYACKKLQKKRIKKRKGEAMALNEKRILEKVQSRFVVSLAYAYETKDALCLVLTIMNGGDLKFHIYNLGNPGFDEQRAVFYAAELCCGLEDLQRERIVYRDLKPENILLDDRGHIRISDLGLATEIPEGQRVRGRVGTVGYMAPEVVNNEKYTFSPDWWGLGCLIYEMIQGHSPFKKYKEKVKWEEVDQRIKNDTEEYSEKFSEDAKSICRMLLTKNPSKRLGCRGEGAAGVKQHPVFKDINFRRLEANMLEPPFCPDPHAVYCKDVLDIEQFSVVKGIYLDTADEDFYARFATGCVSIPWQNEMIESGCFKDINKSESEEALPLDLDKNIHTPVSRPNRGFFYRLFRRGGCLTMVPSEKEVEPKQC

[8] = molecular target: GSK3b (Homo sapiens, UniProt P49841); details: 1 μM; Run 1, Run 2
[9] = molecular target: T3, LCK2/ICK (Homo sapiens, UniProt Q9UPZ9); details: 1 μM; Run 1, Run 2
T3 sequence (Q9UPZ9 1-632): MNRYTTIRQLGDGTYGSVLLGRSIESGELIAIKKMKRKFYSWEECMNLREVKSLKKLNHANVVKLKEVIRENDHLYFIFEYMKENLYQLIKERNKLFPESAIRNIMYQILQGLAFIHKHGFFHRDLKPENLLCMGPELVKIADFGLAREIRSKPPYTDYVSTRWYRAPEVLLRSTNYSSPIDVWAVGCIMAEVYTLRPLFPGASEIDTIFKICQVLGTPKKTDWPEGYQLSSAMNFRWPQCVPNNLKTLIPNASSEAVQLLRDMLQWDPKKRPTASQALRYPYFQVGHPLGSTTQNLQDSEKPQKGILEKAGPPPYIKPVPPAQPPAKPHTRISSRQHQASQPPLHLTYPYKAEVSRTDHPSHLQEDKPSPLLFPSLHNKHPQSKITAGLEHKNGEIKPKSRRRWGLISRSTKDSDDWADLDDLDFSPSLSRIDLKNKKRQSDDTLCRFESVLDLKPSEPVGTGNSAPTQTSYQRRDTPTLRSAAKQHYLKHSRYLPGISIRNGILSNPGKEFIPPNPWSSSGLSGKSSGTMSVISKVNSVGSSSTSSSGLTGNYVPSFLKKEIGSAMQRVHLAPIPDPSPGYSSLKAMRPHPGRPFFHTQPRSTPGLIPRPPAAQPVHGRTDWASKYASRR

[10] = molecular target: LIMK2 (Homo sapiens, UniProt P53671); details: 1 μM; Run 1, Run 2
[11] = molecular target: MLK3/MAP3K11 (Homo sapiens, UniProt Q16584); details: 1 μM; Run 1, Run 2
[12] = molecular target: CDK16/cyclin Y (PCTAIRE) (Homo sapiens, UniProt Q00536); assay: biochemical; details: read-out: % enzyme activity, 1 μM; Run 1, Run 2
[13] = molecular target: CDK17/cyclin Y (PCTK2) (Homo sapiens, UniProt Q00537); assay: biochemical; details: read-out: % enzyme activity, 1 μM; Run 1, Run 2
Chain of CDK17/cyclin Y (PCTK2) (Q00537 whole entry): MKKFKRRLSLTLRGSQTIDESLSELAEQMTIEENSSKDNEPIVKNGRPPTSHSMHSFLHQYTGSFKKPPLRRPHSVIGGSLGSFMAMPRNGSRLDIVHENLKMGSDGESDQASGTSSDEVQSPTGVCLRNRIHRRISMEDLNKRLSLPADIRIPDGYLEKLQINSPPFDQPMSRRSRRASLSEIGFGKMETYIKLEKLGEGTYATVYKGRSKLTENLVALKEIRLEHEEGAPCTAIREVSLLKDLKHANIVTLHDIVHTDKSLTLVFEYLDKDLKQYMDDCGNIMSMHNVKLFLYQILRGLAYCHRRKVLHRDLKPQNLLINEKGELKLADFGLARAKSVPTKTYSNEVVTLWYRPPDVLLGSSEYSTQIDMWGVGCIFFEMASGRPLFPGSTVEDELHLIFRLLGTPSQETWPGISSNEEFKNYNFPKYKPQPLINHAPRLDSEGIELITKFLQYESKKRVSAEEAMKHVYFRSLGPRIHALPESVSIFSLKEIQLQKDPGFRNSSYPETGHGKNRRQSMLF
Chain of CDK17/cyclin Y (PCTK2) (Q8ND76 whole entry partner): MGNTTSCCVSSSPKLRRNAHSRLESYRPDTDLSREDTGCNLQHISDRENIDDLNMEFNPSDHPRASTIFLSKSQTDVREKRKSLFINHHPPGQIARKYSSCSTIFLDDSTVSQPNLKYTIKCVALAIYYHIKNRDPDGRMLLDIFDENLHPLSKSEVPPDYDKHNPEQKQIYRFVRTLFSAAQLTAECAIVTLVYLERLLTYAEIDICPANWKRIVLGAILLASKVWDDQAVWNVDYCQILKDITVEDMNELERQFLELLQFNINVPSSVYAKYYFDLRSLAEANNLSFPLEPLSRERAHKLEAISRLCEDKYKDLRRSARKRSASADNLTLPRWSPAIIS

[14] = molecular target: CK1a1 (Homo sapiens, UniProt P48729); assay: biochemical; details: read-out: % enzyme activity, 1 μM; Run 1, Run 2
[15] = molecular target: ERN2/IRE2 (Homo sapiens, UniProt Q76MJ5); assay: biochemical; details: read-out: % enzyme activity, 1 μM; Run 1, Run 2
Chain of ERN2/IRE2 (Q76MJ5 35-926): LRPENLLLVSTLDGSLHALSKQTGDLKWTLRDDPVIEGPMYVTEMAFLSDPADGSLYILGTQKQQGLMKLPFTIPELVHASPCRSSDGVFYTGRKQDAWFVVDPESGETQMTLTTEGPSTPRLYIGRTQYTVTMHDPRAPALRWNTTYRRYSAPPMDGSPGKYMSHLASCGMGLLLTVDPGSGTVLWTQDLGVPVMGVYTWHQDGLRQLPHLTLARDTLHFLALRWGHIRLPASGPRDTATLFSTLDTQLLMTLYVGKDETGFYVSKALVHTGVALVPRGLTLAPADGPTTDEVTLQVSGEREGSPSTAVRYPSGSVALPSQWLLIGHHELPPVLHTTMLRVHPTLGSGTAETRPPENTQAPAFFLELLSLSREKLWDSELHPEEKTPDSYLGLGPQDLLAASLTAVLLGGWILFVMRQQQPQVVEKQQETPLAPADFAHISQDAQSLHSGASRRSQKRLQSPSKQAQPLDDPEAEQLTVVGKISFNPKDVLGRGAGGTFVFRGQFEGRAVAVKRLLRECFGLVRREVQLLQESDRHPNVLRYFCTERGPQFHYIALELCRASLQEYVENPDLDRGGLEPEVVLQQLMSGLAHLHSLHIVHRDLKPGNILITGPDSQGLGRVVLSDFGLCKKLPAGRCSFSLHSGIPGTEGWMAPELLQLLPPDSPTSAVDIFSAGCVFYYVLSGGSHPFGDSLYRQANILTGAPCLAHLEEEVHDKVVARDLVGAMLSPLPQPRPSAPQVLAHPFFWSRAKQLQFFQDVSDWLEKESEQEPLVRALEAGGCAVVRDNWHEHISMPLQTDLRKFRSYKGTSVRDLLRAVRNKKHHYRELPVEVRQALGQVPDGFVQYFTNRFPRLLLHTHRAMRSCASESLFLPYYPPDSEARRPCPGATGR

[16] = molecular target: FGFR2 (Homo sapiens, UniProt P21802); assay: biochemical; details: read-out: % enzyme activity, 1 μM; Run 1, Run 2
[17] = molecular target: MARK3 (Homo sapiens, UniProt P27448); assay: biochemical; details: read-out: % enzyme activity, 1 μM; Run 1, Run 2
Chain of MARK3 (P27448 whole entry): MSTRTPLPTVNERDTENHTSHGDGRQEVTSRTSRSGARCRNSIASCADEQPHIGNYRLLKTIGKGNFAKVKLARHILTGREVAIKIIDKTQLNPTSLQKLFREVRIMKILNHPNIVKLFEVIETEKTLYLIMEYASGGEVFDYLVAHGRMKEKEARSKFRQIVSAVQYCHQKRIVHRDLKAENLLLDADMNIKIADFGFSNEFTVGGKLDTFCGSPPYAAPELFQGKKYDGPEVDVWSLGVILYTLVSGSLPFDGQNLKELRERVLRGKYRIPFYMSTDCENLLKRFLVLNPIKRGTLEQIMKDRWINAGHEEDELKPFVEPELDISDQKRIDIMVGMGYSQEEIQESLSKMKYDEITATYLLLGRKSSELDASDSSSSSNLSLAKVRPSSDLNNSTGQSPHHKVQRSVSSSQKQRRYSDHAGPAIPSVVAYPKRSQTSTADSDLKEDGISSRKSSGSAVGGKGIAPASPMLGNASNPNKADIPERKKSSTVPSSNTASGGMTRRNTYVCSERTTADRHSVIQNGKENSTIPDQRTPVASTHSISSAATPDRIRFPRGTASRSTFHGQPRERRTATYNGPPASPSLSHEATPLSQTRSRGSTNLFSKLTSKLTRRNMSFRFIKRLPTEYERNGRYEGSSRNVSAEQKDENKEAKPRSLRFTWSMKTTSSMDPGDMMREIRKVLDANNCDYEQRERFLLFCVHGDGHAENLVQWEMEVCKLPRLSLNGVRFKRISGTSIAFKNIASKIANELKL

[18] = molecular target: MEKK1 (Homo sapiens, UniProt Q13233); assay: biochemical; details: read-out: % enzyme activity, 1 μM; Run 1, Run 2
[19] = molecular target: PKN1/PRK1 (Homo sapiens, UniProt Q16512); assay: biochemical; details: read-out: % enzyme activity, 1 μM; Run 1, Run 2
Chain of PKN1/PRK1 (Q16512 whole entry): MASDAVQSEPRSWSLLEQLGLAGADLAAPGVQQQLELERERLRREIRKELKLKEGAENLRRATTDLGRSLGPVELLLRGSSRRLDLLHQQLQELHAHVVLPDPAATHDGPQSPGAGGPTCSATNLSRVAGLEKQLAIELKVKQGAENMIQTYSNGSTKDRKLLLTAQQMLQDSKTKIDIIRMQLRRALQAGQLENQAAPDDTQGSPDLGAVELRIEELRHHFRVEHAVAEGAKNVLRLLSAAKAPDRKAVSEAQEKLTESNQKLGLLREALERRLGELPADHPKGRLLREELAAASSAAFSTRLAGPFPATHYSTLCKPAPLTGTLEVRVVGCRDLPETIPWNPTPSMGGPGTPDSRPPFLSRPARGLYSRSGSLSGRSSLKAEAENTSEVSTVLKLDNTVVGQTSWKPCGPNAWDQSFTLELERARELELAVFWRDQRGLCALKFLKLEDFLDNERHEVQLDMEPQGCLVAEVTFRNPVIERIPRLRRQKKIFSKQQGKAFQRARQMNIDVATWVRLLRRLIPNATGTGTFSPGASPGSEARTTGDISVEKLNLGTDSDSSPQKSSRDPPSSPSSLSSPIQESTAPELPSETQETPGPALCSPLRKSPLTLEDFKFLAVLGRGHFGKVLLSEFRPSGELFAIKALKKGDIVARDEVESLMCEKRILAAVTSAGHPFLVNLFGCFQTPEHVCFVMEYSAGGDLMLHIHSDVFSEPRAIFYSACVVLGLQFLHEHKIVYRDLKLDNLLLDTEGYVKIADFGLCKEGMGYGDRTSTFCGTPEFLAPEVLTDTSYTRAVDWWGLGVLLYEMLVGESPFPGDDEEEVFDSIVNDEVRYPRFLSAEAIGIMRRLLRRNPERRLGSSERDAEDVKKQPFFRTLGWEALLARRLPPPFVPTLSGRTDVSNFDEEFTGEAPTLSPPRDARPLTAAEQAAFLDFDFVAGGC

[20] = molecular target: SGK2 (Homo sapiens, UniProt Q9HBY8); assay: biochemical; details: read-out: % enzyme activity, 1 μM; Run 1, Run 2
[21] = molecular target: SRMS (Homo sapiens, UniProt Q9H3Y6); assay: biochemical; details: read-out: % enzyme activity, 1 μM; Run 1, Run 2
[22] = molecular target: T4, TSSK2 (Homo sapiens, UniProt Q96PF2); assay: biochemical; details: read-out: % enzyme activity, 1 μM; Run 1, Run 2
T4 sequence (Q96PF2 1-358): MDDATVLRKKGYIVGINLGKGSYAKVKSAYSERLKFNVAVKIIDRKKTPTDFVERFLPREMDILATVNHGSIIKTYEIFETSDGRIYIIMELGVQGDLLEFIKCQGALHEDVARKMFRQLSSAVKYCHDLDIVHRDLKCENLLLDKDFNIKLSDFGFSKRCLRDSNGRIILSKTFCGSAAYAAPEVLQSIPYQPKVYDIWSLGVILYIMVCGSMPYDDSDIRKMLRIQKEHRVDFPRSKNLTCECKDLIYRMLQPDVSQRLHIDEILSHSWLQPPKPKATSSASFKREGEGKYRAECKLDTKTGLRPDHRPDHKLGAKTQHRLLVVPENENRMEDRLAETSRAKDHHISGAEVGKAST

Compound | hERG inhibition [1] [µM] | CYP inhibition [2] [µM] | remaining at 1 h, 1 μM [3] [%] | % enzyme activity [4] [%] | remaining activity at 1 µM [4] [%] | % enzyme activity [5] [%] | % enzyme activity [6] [%] | % enzyme activity [7] [%] | % enzyme activity [8] [%] | % enzyme activity [9] [%] | % enzyme activity [10] [%] | % enzyme activity [11] [%] | remaining activity at 1 µM [12] [%] | remaining activity at 1 µM [13] [%] | remaining activity at 1 µM [14] [%] | remaining activity at 1 µM [15] [%] | remaining activity at 1 µM [16] [%] | remaining activity at 1 µM [17] [%] | remaining activity at 1 µM [18] [%] | remaining activity at 1 µM [19] [%] | also measured
COc1cc(-c2cncc(-c3ccc(N4CCN(C)CC4)cc3)c2C)cc(F)c1C(N)=O [Compound 26a, 2-Fluoro-6-methoxy-4-(4-methyl-5-(4-(4-methylpiperazin-1-yl)phenyl)pyridin-3-yl)benzamide] | > 30 | > 50 | 54.6 | 96.95 | 97.5 | 28.83 | 99.59 | 79.15 | 84.98 | 104.57 | 99.63 | 99.32 | 92.8 | 96.1 | 96.1 | 97.5 | 95.5 | 83.5 | 94.3 | 98.5 | IC50 [1]: >30 µM; remaining activity at 1 µM [20]: 102%; remaining activity at 1 µM [21]: 96.6%; remaining activity at 1 µM [22]: 100%
COc1cc(-c2cncc(-c3ccc(N4C[C@@H](C)N(C)[C@@H](C)C4)cc3)c2C)cc(F)c1C(N)=O [Compound 26c, 2-Fluoro-6-methoxy-4-(4-methyl-5-(4-((3R,5S)-3,4,5-trimethylpiperazin-1-yl)phenyl)pyridin-3-yl)benzamide] | 18.8 | > 50 | 48.7 | 102.30 | 106 | 43.32 | 86.89 | 92.15 | 88.83 | 95.60 | 95.75 | 96.66 | 91.6 | 101 | 100 | 98.9 | 91.9 | 95 | 97.7 | 98.7 | remaining activity at 1 µM [20]: 103%; remaining activity at 1 µM [21]: 96.1%; remaining activity at 1 µM [22]: 100%
